From patent US10532085B2, “Methods for increasing intracellular activity of Hsp70” (Orphazyme A/S, priority 2010, dated 2020) come the findings set out here.

Series [1] has as its system primary fibroblasts from Niemann-Pick Disease type A patient. Put plainly: Lysosomal cross-sectional area in NPDA patient fibroblasts. In kind it is cell-based, Human. As to conditions: pulse-chase, added at T=0, measured at 24 h, 48 h, 72 h and 1 week; patient id 83/24; effect reversible. On the procedure:
FIG. 5: Pulse-Chase experiment. rhHSP70 (recombinant human HSP70) was added to primary fibroblasts from Niemann-Pick Disease type A patient (patient id: 83/24) at T=0, measurements of lysosomal cross-sectional area were performed at 24 h, 48 h, 72 h and 1 week after administration. […] Conclusion: The effect of rhHSP70 is reversible and lasts ca. 1 week.
FIG. 6: Arimoclomol dose-titration experiment. Various concentrations of Arimoclomol (‘Ari’) added for 48 h to primary fibroblasts from Niemann-Pick Disease type A patient (patient id: 83/24). Read-out: lysosomal cross-sectional area.

For series [2], the system named is primary fibroblasts from Niemann-Pick Disease type C1 patient. Briefly: Lysosomal cross-sectional area, laser confocal microscopy, NPC1 fibroblasts. The format is cell-based, human. As to conditions: Alexa Fluor 488 labelled, added for 48 h; GM17918. On the procedure:
FIG. 7: Test of rhHSP70 in non-sphingolipidosis. rhHSP70 labelled with Alexa Fluor 488 (for visualization of uptake) was added for 48 h to primary fibroblasts from Niemann-Pick Disease type C1 patient (Coriell Cell Repository ID: GM17918). Read-out: lysosomal cross-sectional area (Primary cellular pathology), performed by laser confocal microscopy.

Series [3] deals with primary fibroblasts from Mucopolysaccharidosis type IIIA patients. Briefly: Volume of Acidic Compartment (VAC) by FACS, MPS IIIA fibroblasts. The format is cell-based, human. As to conditions: added for 48 h, MPSIIIA GM00879. On the procedure: FIG. 10: Test of rhHSP70 in non-sphingolipidosis. rhHSP70 was added for 48 h to primary fibroblasts from Sandhoff Disease and Mucopolysaccharidosis type IIIA (aka Sanfilippo type IIIA) patients (Coriell Cell Repository ID: Sandhoff: GM11098, MPSIIIA: GM00879). Ctrl=Normal Control fibroblasts. Read-out: Volume of Acidic Compartment (VAC) (Primary cellular pathology), performed by FACS.
For orientation: In flow cytometry, cells or beads pass a laser one at a time.

Series [4] in a line: Liposome 90° light scattering, POPC liposomes. The format is binding. As to conditions: pH 7.4. An excerpt:
(§1) Thus, we investigated the interaction of Hsp70 with palmitoyl-oleoyl-phosphatidylcholine (POPC) large unilamellar vesicles (LUVs) containing various membrane-associated anionic lipids, i.e. palmitoyl-oleoyl-phosphatidylserine (POPS; primarily in plasma membrane), cardiolipin (primarily mitochondrial) and BMP (primarily in late endosomes/lysosomes). Taking into account the increasingly acidic milieu of the endo-lysosomal compartment upon maturation to lysosomes, we compared the protein-lipid interactions in neutral (pH 7.4) and acidic (pH 6.0) conditions. […] As reported earlier for POPS, all negatively charged lipids enhanced the binding of rHsp70 to the liposomes at neutral pH approximately 4-fold irrespective of the charge density on the liposome surface (ranging from −1 to −2).
(§2) The tryptophan fluorescence spectra (RFI) and liposome 90° light scattering (RSI) were analyzed in a HEPES buffer (20 mM HEPES, 0.1 mM EDTA, pH 7.4 or 6.0 as indicated) employing LUVs consisting of indicated lipids essentially as described in the art. For the RFI, LUVs were added in 10 μM aliquots and spectra recorded after a 20 min stabilization period. For the RSI, recombinant proteins were added in 0.12 nmol aliquots.

The nature of series [5]: Liposome 90° light scattering, BMP. In kind it is binding. As to conditions: pH 6.0 vs pH 7.4.
Text: as §1, §2

For series [6], the system named is NPC−/− mice. Put plainly: NPC1 in vivo pilot study: tremor analysis. The following applies: automated tremor monitor; particularly pronounced in the lowest frequency range. On the procedure: (§3) Eight treated (rHSP70) NPC^−/− versus eight control (PBS only) NPC^−/− controls. Mice were treated IP three times per week with either 10 mg/kg of rHSP70 or vehicle alone (PBS) from 3 weeks of age. Three control and three treated mice were sacrificed at 7 or 9 weeks old (i.e. after 4 or 6 weeks of treatment, respectively). Organs were perfused (PBS), weighed and frozen for biochemical and immunohistochemical analysis.
(§4) Behavioural experiments were performed from 3 weeks of age, as described previously. Briefly, tremor analysis was performed using an automated tremor monitor (San Diego instruments) Gait analysis was performed by painting front and hind paws with non-toxic paint and allowing the mice to walk over Whatman 3M paper. Paw placement was measured to determine how closely their hind paws superimposed their front paws, the length of the stride and the width of their gait.

Series [7] deals with NPC−/− mice. Briefly: NPC1 in vivo pilot study: gait analysis. As to conditions: 10 mg/kg IP three times per week. On the procedure:
as §3, §4

Turning to “rHsp70: recombinant (human) heat shock protein 70; in some tests labelled with Alexa Fluor 488”, the “duration of the effect on lysosomal cross-sectional area” value in series [1] was “ca. 1 week”. Also, the “lysosomal cross-sectional area (primary cellular pathology)” value in series [2] is given as “effectively reverts the lysosomal primary pathology”. For the same substance, in series [3], the “Volume of Acidic Compartment (VAC)” value was “effectively reverts the lysosomal primary pathology”. For the same substance, in series [4], the “binding (relative change in 90° light scattering)” value is given as “very weak binding”. Besides, the “binding to BMP at acidic pH as compared to neutral pH” value in series [5] was about 20 times. Besides, the tremor result in series [6] is “increased tremor from 3 weeks of treatment and remained increased until endstage”. For the same substance, in series [7], the “gait (front:hind paw placement, stride length, gait width)” value is reported as “no difference”.
